Source: patent US8202874B2, “Substituted N-oxide pyrazine derivatives” (Mitsubishi Tanabe Pharma Corporation, priority 2008, dated 2012)

Target: GSK3β (Homo sapiens, UniProt P49841)
Experiment: Inhibitory activity against GSK3β (33P-ATP phosphorylation of prephosphorylated GS1 peptide)
Format: biochemical
Details: protocol 3: 7.5 μM GS1 peptide, 10 μM ATP, 50 mM Hepes pH 7.2, one hour at room temperature
Description: Four different protocols can be used.
In a first protocol: 7.5 μM of prephosphorylated GS1 peptide and 10 μM ATP (containing 300,000 cpm of ^33P-ATP) were incubated in 25 mM Tris-HCl, pH 7.5, 0.6 mM DTT, 6 mM MgCl2, 0.6 mM EGTA, 0.05 mg/ml BSA buffer for 1 hour at room temperature in the presence of GSK3beta (total reaction volume: 100 microliters).
In a second protocol: 4.1 μM of prephosphorylated GS1 peptide and 42 μM ATP (containing 260,000 cpm ^33P-ATP) were incubated in 80 mM Mes-NaOH, pH 6.5, 1 mM Mg acetate, 0.5 mM EGTA, 5 mM 2-mercaptoethanol, 0.02% Tween 20, 10% glycerol buffer for 2 hours at room temperature in the presence of GSK3beta.
In a third protocol: 7.5 μM of prephosphorylated GS1 peptide and 10 μM ATP (containing 300,000 cpm of ^33P-ATP) were incubated in 50 mM Hepes, pH 7.2, 1 mM DTT, 1 mM MgCl2, 1 mM EGTA, 0.01% Tween 20 buffer for one hour at room temperature in the presence of GSK3beta (total reaction volume: 100 microliters). […]
The reaction was stopped with 100 microliters of a solution made of 25 g polyphosphoric acid (85% P2O5), 126 ml 85% H3PO4, H2O to 500 ml and then diluted to 1:100 before use. […] Incorporated ^33P radioactivity was determined by liquid scintillation spectrometry. […]

Chain of GSK3β (P49841 whole entry): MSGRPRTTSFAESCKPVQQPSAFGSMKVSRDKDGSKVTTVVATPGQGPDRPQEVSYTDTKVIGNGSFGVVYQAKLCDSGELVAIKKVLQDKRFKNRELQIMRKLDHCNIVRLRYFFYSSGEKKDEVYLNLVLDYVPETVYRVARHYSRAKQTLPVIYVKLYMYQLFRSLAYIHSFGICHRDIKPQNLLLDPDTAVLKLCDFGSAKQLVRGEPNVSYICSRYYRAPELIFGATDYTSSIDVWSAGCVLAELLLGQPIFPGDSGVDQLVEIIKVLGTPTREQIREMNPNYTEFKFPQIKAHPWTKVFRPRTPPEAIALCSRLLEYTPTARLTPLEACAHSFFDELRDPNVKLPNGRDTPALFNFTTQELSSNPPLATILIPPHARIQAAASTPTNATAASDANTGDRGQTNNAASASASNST

IC50: 506 nM
SMILES: [O-][n+]1cc(NCC(O)c2ccccc2)nc(-c2ccncc2)c1 (racemic) [compound 2, (+/−)2-[(4-oxido-6-pyridin-4-ylpyrazin-2-yl)amino]-1-phenylethanol]
